Five compounds from US20110257176A1, “NITROGEN HETEROCYCLE DERIVATIVES AS PROTEASOME MODULATORS” (INSTITUT NATIONAL DE LA SANTE ET DE LA RECHERCHE MEDICALE …, priority 2008, published 2011) can be followed below.

Assay [1] has as its system cellular proteasome in HEK-293 cells. As to the kind of experiment: Inhibition of proteasome in a cell assay: accumulation of ubiquitinylated proteins (Western blot). It is filed as cell-based, Human. As to conditions: 16 h, 10 μM. The procedure:
Indeed, if the proteasomes are inhibited, in particular the proteasome 26S, the degradation of ubiquitinalyted proteins should be blocked, and those proteins should accumulate.
240 000 HEK-293 cells were incubated for 16 h, in presence of oxadiazole derivatives at the concentration of 10 μM.
After extraction of the proteins (centrifugation of lysed cells), the concentration of proteins in the sample was determined with the BCA (Bicinchoninic Acid) protein Assay.
3 μg of proteins for each sample were deposited into a SDS-PAGE gel at 8%.

Assay [2] concerns the target T1, human erythrocyte 20S proteasome, trypsin-like (T-L) activity (Homo sapiens, UniProt Q99436).
T1 construct: three activities of human erythrocyte 20S proteasome; from tissue; host or cells: human erythrocytes
As to the kind of experiment: 20S proteasome trypsin-like (T-L) activity, Boc-LRR-AMC hydrolysis. It is filed as biochemical. Further details: key to Inhibition of trypsin-like activity (NI): NI: No Inhibition. The settings on record: screened at 100 and 50 μM. As to the method: (§1) Rabbit erythrocyte 20S proteasome was obtained from Boston Biochem, Cambridge, USA. The fluorogenic substrates Suc-LLVY-AMC, Boc-LRR-AMC and Z-LLE-βNA used to measure the proteasome activities CT-L, T-L and PA respectively were purchased from Bachem (France). Other reagents and solvents were purchased from commercial sources. Fluorescence was measured using a BMG Fluostar microplate reader.
(§2) The inhibitory activity of compounds is expressed as IC50, which corresponds to the concentration of proteasome inhibitor leading to a loss of activity of 50%. The values of IC50 were calculated by fitting the experimental data to equation 1: % Inhibition=100×(1−Vi/V0)=100 [I]0/(IC50+[I]0), or equation 2: % Inhibition=100 [I]0^nH/(IC50^nH+[I]0^nH), where Vi is the initial rate in the presence of the inhibitor, V0 is the initial rate in the absence of the inhibitor, [I]0 is the inhibitor concentration, nH is the Hill number (FIG. 1).
(§3) Compounds 24, 25 and 31-35 were tested in duplicate against three activities of human erythrocyte 20S proteasome at 100 and 50 μM in the appropriate buffer (pH 7.5): 20 mM Tris HCl, 10% (v/v) glycerol, 0.01% (w/v) SDS and 2% DMSO (CT-L and PA activities); 20 mM Tris HCl, 10% (v/v) glycerol, and 2% DMSO (T-L activity). The inhibitory activities were analyzed as described above for compounds 1-23.

The target of assay [3] is T2, human erythrocyte 20S proteasome, chymotrypsin-like (CT-L) activity (Homo sapiens, UniProt P28074).
T2 construct: three activities of human erythrocyte 20S proteasome; from tissue; host or cells: human erythrocytes
The experiment in a line: 20S proteasome chymotrypsin-like (CT-L) activity, Suc-LLVY-AMC hydrolysis. It counts as biochemical. The settings on record: pH 7.5. As to the method:
as §1, §2, §3

Another assay deals with HEK-293 cells. The experiment in a line: Cell viability, XTT assay, HEK-293. The settings on record: Homo sapiens, HEK293, 48 h, read-out: EC50, concentration inhibiting cell growth by 50%. It counts as cell-based. The procedure:
(§4) The cell survival was determined with the XTT assay. Human cells (HeLa from cervical carcinoma and HEK-293 from epithelial kidney) were obtained from Invitrogen (Cergy-Pontoise, France). The cells were grown at 37° C. in DMEM supplemented with 10% fetal bovine serum (Invitrogen) in a humidified atmosphere of 5% CO2 and 95% air.
(§5) 5×10^3 cells in 100 μL culture medium were exposed for 48 h in 96-well plates to increasing concentrations of compounds: 5-100 μM, final concentration of DMSO is 1% (v/v). The culture medium is then replaced by 100 μL of DMEM F12 culture medium devoid of phenol red and containing a mixture of XTT (0.3 mg/mL) and PMS (8.3 nM) (XTT: 2,3-bis[2-methoxy-4-nitro-5-sulfophenyl-2H-tetrazolium-5-carboxyanilide sodium; PMS: phenazine methosulfate, both purchased from Sigma, Saint Quentin Fallavier, France). Cells were then incubated for 3 h at 37° C.
(§6) During this incubation, the mitochondrial deshydrogenases of viable cells hydrolyzed the tetrazolium cycle of XTT, leading to orange formazan crystals soluble in aqueous solution.
(§7) The orange color was measured at 485 nm using a BMG Fluostar microplate reader.
(§8) In control experiments, cells were treated by the vehicule (DMSO) at the same concentration than that used for the inhibitors.
The cytotoxicity activity of drags was expressed as the concentration inhibiting cell growth by 50% (EC50) calculated from the survival curves. The experimental data are fitted to the following equation, describing the relationship between % survival and drug concentration (C):
% cell survival=100−(Emax×C^n)/(C^n+EC50^n)
where C is the drug concentration; Emax is the maximum drug effect (%); EC50 is the concentration that produces one-half of the maximum effect; and n is the Hill constant, which describes the shape of the curve.

Assay [4] deals with T3, human erythrocyte 20S proteasome, post-acid (PA) activity (Homo sapiens, UniProt P28072).
T3 construct: three activities of human erythrocyte 20S proteasome; from tissue; host or cells: human erythrocytes
The experiment in a line: 20S proteasome post-acid (PA) activity, Z-LLE-βNA hydrolysis. It counts as biochemical. Also on record: key: NI: No Inhibition. The settings on record: screened at 100 and 50 μM. As to the method: as §1, §2, §3

Assay [5] relates to rabbit reticulocyte 20S proteasome, trypsin-like (T-L) activity. As to the kind of experiment: 20S proteasome trypsin-like (T-L) activity, Boc-LRR-AMC hydrolysis. It is filed as biochemical. Further details: key to Inhibition of trypsin-like activity (NI): NI: No Inhibition. The settings on record: rabbit 20S proteasome; for Inhibition of trypsin-like activity (NI): screened at 100 μM and 50 μM. The procedure: as §1
(§9) Compounds 1-23 were tested for their potential to inhibit the CT-L, T-L and PA activities of the rabbit reticulocyte 20S proteasome. Enzyme activities were determined by monitoring the hydrolysis of the appropriate fluorogenic substrate (λexc=360, λem=465 nm for AMC substrates, and λexc=340, λem=405 nm for the βNA substrate) for 1 h at 37° C.
(§10) In the in vitro screening, each compound was tested in duplicate against the three activities, at 100 μM and 50 μM in the corresponding buffer. The buffer were (pH 8): 50 mM Tris, 150 mM NaCl, 10% (v/v) glycerol, 0.025% (w/v) SDS, and 3% (v/v) DMSO (CT-L and PA activities); 50 mM Tris, 150 mM NaCl, 10% (v/v) glycerol, and 3% (v/v) DMSO (T-L activity).
as §2

The target in assay [6] is T4, rabbit reticulocyte 20S proteasome, chymotrypsin-like (CT-L) activity (Oryctolagus cuniculus, UniProt G1T4Q9).
T4 construct: IC50 on chymotrypsin-like activity; other: rabbit 20S proteasome, pH 8, 37° C; Rabbit erythrocyte 20S proteasome was obtained from Boston Biochem, Cambridge, USA
T4 sequence (G1T4Q9 1-263): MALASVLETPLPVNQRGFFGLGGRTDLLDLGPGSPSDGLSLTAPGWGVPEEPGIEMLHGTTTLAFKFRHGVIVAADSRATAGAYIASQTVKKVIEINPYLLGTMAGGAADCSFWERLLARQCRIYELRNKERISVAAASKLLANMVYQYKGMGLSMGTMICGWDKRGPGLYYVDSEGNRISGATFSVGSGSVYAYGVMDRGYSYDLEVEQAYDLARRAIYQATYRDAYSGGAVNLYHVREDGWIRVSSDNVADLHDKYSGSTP
As to the kind of experiment: 20S proteasome chymotrypsin-like (CT-L) activity, Suc-LLVY-AMC hydrolysis. It is filed as biochemical. The settings on record: rabbit 20S proteasome, pH 8, 37° C. As to the method: as §1, §9, §10, §2

Assay [7] has as its target rabbit reticulocyte 20S proteasome, post-acid (PA) activity (Oryctolagus cuniculus, UniProt G1T235). The experiment in a line: 20S proteasome post-acid (PA) activity, Z-LLE-βNA hydrolysis. It is filed as biochemical. Also on record: key to Inhibition of post-acid activity (NI): NI: No Inhibition. As to conditions: rabbit 20S proteasome, screened at 100 μM and 50 μM. As to the method: as §1, §9, §10, §2

Assay [8] deals with T5, rabbit reticulocyte 20S proteasome, chymotrypsin-like (CT-L) activity (UniProt G1T4Q9).
T5 construct: IC50 on chymotrypsin-like activity; other: rabbit 20S proteasome, pH 8, 37° C; Rabbit erythrocyte 20S proteasome was obtained from Boston Biochem, Cambridge, USA
As to the kind of experiment: 20S proteasome chymotrypsin-like (CT-L) activity, Suc-LLVY-AMC hydrolysis. It is filed as biochemical. The settings on record: rabbit 20S proteasome, pH 8, 37° C. The procedure: as §1, §9, §10, §2

The next assay relates to HeLa cells. As to the kind of experiment: Cell viability, XTT assay, HeLa. It is filed as cell-based. As to conditions: Homo sapiens, 48 h, read-out: EC50, concentration inhibiting cell growth by 50%. The procedure:
as §4, §5, §6, §7, §8
The cytotoxicity activity of drags was expressed as the concentration inhibiting cell growth by 50% (EC50) calculated from the survival curves. […]

The next assay addresses T6, human calpain-I (Homo sapiens, UniProt P07384).
T6 sequence (P07384 1-714): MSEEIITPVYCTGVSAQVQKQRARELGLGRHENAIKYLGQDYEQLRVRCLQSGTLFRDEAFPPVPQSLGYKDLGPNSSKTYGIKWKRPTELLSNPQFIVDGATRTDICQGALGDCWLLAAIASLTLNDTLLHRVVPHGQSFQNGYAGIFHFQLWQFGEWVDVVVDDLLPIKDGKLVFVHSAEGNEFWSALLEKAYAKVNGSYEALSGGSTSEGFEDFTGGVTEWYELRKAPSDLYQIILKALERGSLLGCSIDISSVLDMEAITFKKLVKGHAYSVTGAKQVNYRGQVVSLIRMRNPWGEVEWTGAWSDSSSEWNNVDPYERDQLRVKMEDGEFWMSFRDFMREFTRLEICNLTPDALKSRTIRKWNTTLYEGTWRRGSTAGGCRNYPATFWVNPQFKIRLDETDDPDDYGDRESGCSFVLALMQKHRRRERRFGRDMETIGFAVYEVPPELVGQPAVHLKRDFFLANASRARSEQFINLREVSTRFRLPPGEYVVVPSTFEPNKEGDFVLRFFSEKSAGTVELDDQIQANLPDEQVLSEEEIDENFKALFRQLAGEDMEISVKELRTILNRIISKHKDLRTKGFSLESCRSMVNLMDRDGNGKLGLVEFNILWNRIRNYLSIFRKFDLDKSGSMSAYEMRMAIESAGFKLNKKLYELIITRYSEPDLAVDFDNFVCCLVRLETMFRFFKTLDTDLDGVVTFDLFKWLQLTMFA
T6 sequence (P04632 1-268 partner): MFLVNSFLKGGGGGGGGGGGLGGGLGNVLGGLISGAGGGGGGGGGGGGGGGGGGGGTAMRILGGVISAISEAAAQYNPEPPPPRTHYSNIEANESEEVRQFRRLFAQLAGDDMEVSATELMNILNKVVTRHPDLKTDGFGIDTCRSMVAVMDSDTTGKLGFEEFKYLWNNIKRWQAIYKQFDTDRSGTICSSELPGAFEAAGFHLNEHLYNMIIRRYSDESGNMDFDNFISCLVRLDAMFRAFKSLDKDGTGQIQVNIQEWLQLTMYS
The experiment in a line: Selectivity: inhibition of calpain-I. It counts as biochemical. As to conditions: 100 μM compound.

The structures appear in SMILES notation. Where a SMILES comes first, the peptide text is derived from it. The star is where a group is joined. Cbz = O=C(OCc1ccccc1)*

Sequence of rabbit reticulocyte 20S proteasome, post-acid (PA) activity (G1T235 entry or part of it): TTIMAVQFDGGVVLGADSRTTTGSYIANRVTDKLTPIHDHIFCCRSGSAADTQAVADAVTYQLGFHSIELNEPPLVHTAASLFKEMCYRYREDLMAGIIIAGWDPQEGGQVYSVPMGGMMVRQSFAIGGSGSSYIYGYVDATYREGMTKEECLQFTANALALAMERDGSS

As to `CC(C)C[C@@H](C=O)NC(=O)[C@H](CC(C)C)NC(=O)[C@H](CC(C)C)NC(=O)OCc1ccccc1` [MG132] (Cbz-Leu-Leu-Leu-aldehyde), the “Accumulation of ubiquitinylated proteins (anti-ubiquitin Western blot)” value in assay [1] is reported as “induce an accumulation of ubiquitinalyted proteins”.

Regarding `CC(C)N(Cc1nc(CCl)no1)C(=O)COc1ccc(Br)cc1` [Compound 31], in [2], the “Inhibition of trypsin-like activity (NI)” value is recorded as “NI”. In assay [3], this compound returned an IC50 of 2.69 ± 0.22 µM. Besides, in the assay with HEK-293 cells, the EC50 is 16.1 ± 0.5 µM. For the same compound, the “Inhibition of post-acid activity (NI)” value in assay [4] is given as “NI”.

`C=CCOc1ccc(C(=O)N(Cc2nc(-c3ccc(OC)c(OC)c3)no2)C(C)C)cc1` [Compound 19]: the “Activation × of trypsin-like activity” value in assay [5] (100 μM compound, fold activation) was “Activation × 11.5 (100 μM)”. Also, the IC50 in [6] was found to be 3.51 ± 0.12 µM. Also, in assay [7], the “Inhibition of post-acid activity (NI)” value is “NI”. Besides, the EC50 in the assay with HEK-293 cells was found to be 39.2 ± 2 µM.

Take `Cc1ccc(-c2noc(CN(C(=O)COc3ccc(C(C)C)cc3)C(C)C)n2)cc1` [Compound 1]: the “Inhibition of trypsin-like activity (NI)” value in assay [5] is listed as “NI”. Also, the IC50 in assay [8] is about 7 µM. In the assay with HeLa cells, the EC50 was found to be 44 ± 3.8 µM. The “Inhibition of post-acid activity (NI)” value in assay [7] is given as “NI”.

As to `COc1ccc(-c2noc(CN(C(=O)COc3ccccc3)C(C)C)n2)cc1` [Compound 9], at human calpain-I, the inhibition at 100 µM is at most 30%. For the same compound, the “Inhibition of trypsin-like activity (NI)” value in assay [5] is on record as “NI”. In addition, the IC50 in assay [8] was determined as 3.96 ± 0.75 µM. Also, the “Inhibition of post-acid activity (NI)” value in [7] was “NI”.
